According to the supplement of paper PMC10307832:

How the values were obtained:
Decitabine = compound: Nc1ncn([C@H]2C[C@H](O)[C@@H](CO)O2)c(=O)n1 [Decitabine]; experiment: relative viability (nuclei count vs DMSO), 5 days (fraction); higher = more cells survive
In short: (§1)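 Five library-drug doses spaced by √10 were pinned onto vehicle-anchored 1536-well plates of lung cancer cell lines that had been kept overnight at 37 °C. Cells went 5 days without medium change, then were fixed, permeabilised and Hoechst-stained together, imaged at 4× and counted by MetaXpress. Viability is the ratio of treated-well to vehicle-well nuclei, taken as a median over plates. Plates required control CV below 25% and at least one doubling.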

Halofuginone = compound: O=C(C[C@H]1NCCC[C@@H]1O)Cn1cnc2cc(Br)c(Cl)cc2c1=O (racemic) [Halofuginone]; experiment: as above
In short: as §1

Cell Line | relative viability (Decitabine; 0.04 µM) | relative viability (Decitabine; 0.1265 µM) | relative viability (Decitabine; 0.4 µM) | relative viability (Decitabine; 1.265 µM) | relative viability (Decitabine; 2 µM, anchor plate) | relative viability (Decitabine; 4 µM) | relative viability (Halofuginone; 0.001 µM) | relative viability (Halofuginone; 0.003162 µM) | relative viability (Halofuginone; 0.01 µM) | relative viability (Halofuginone; 0.03162 µM) | relative viability (Halofuginone; 0.1 µM)
HCC-15 | 0.915 | 0.917 | 0.419 | 0.483 | 0.661 | 0.508 | 0.991 | 1.14 | 0.981 | 0.979 | 0.842
EMC-BAC-2 | – | 1.04 | 0.817 | 0.726 | 0.976 | 0.685 | 1.07 | 0.977 | 1.13 | 0.926 | 0.595
NCI-H1734 | 0.804 | 0.829 | 0.69 | 0.498 | 0.517 | 0.363 | 1 | 1.06 | 0.985 | 0.984 | 0.751
NCI-H1395 | 0.627 | 0.671 | 0.729 | 0.508 | 0.744 | 0.528 | 0.984 | 0.872 | 0.809 | 0.868 | 0.768
HOP-62 | 0.631 | 0.472 | 0.253 | 0.165 | 0.212 | 0.199 | 0.964 | 1.11 | 1.01 | 0.863 | 0.69
LK-2 | 0.848 | 1.03 | 0.721 | 0.472 | 0.302 | 0.484 | 0.91 | 0.927 | 1.03 | 1.02 | 0.741
SW 1573 | 0.815 | 0.944 | 0.732 | 0.486 | 0.504 | 0.379 | 1.08 | 1.06 | 0.908 | 0.692 | 0.278
NCI-H1299 | 1.03 | 1.02 | 1.02 | 0.943 | – | 0.874 | 1.06 | 1.06 | 0.999 | 0.979 | 0.886
SK-LU-1 | 0.788 | 0.703 | 0.46 | 0.482 | 0.631 | 0.411 | 1.09 | 1.05 | 1.04 | 1.05 | 0.588
NCI-H23 | 0.671 | 0.462 | 0.341 | 0.26 | 0.324 | 0.293 | 0.979 | 0.937 | 0.868 | 0.874 | 0.671
NCI-H1355 | 0.768 | 0.643 | 0.42 | 0.338 | 0.362 | 0.278 | 0.989 | 1.02 | 0.94 | 0.941 | 0.899
COR-L23 | 0.677 | 0.629 | 0.484 | 0.379 | 0.441 | 0.308 | 1.14 | 1.02 | 0.982 | 0.931 | 0.268
A549 | 0.858 | 0.724 | 0.554 | 0.174 | 0.265 | 0.159 | 1.03 | 0.972 | 0.975 | 0.766 | 0.385
